Entries after “also recorded” stand apart in the source; their conditions may differ. Where two headings read alike, the source gives them in different places.
Assay: Pharmacokinetics of ERL and GEF in Wistar rats after four weeks consumption of water or flavoured water (plasma, UPLC-MS/MS, non-compartmental analysis)
Assay type: in vivo
Details: for concentration at 0 h / concentration at 0.5 h / concentration at 1 h / concentration at 2 h / concentration at 3 h / concentration at 5 h / concentration at 24 h / concentration at 48 h / AUC(0-inf) / CL/F / Cmax / Tmax / AUC(0-t) / half-life / AUC: male, Wistar, rat, plasma, 20 mg/kg; for Tmax: read-out: tmax; for AUC(0-t): read-out: AUC0-48; for half-life: read-out: t½ (converted)
Method: Fifty healthy male Wistar rats weighing 250 ± 30 g were obtained from the animal house, College of Pharmacy, King Saud University, Riyadh, Saudi Arabia. Rats were randomly divided into ten cages (n = 5). All individualized ventilated cages (IVC) type IV used in this study were of 20″L × 11″W × 9″ in dimension capable of hosting 4–5 rats. Cages density, bedding, and sanitation frequency was similar in all cages. Cages were housed at room temperature (25 °C) and at an average relative humidity of 50%. Daily observation of all rats was required to ensure that all animals maintained good health. All animal experiments strictly followed the guidelines of the Ethical Committee for Performing Studies on Animals, King Saud University, Riyadh, Saudi Arabia, protocol number KSU-SE-19-13.
Four types of FW, (Aquafina®, a product of Pepsi-Cola®, Saudi Industrial Projects Company, Jeddah, Saudi Arabia) with different flavours, specifically berry (group II), peach (group III), lime (group IV), and pineapple FW (group V) were used. Other components found in FW used in this study include water, preservatives (sodium phosphate, potassium sorbet, sodium benzoate), acidifiers (citric acid, maleic acid), sweeteners (aspartame, potassium acesulfame, allose), acidity regulator (sodium citrate), and antioxidant agent (calcium disodium EDTA). […] The parallel design was used in this study to avoid animals’ physiological changes that could occur in the cross-over design, possibly affecting PK profiles of drug substances. All animals involved in the study were deprived from food, but not water/FW, for at least 12 h before drug administration. […] Drugs were administered to the rats between 7:00 am and 8:00 am. Rats were separately weighed from day one of water/FW consumption prior to drug administration for accurate dose calculation (Fig. S1). Blood samples (0.3 mL) were collected from each rat immediately prior to dosing (0 time) and at predetermined time points (0.5, 1, 2, 3, 5, 24, and 48 h) post drug administration. Blood samples were withdrawn and processed as described previously ([Maher et al., 2017]; [Maher, Alzoman & Shehata, 2016]; [Maher, Alzoman & Shehata, 2018]). Specifically, blood samples were withdrawn from the retro-orbital sinus into a series of heparinized tubes. Plasma was separated from collected blood samples by centrifugation at 4,500 rpm for 30 min where the centrifuge was maintained at 4 °C, and then stored at −20 °C until the day of analysis. […] A mixture of acetonitrile: water (80: 20, v/v), with 0.1% formic acid was used as a mobile phase at a flow rate of 0.2 mL/min ([Maher, Alzoman & Shehata, 2016]).
Cmax and tmax were obtained from the corresponding plasma concentration–time curve (Figs. 1A and 1B). […] The area under the plasma concentration–time curve from time 0 to the last sampling time t, 48 h (AUC0–t) was calculated using the trapezoidal rule. […] AUC0–∞ was also derived by summing up AUC0–t andthe area obtained by extrapolation from time t to ∞. The latter area was calculated from the division of the last measured concentration (Clast) by λz.
Results were presented as mean ± SD. PK parameters of all treated groups following the consumption of FW were compared with control (rats having free access to water), using one-way ANOVA and Bonferroni’s multiple comparisons test. Statistical significance was obtained with p-values ≤ 0.05.

[1] = oral, PKSolver sheet, dose 20 mg/kg, +Berry, read-out: Conc
[2] = oral, PKSolver sheet, dose 20 mg/kg, +Lime, read-out: Conc
[3] = oral, PKSolver sheet, dose 20 mg/kg, +Peach, read-out: Conc
[4] = oral, PKSolver sheet, dose 20 mg/kg, +Pineapple, read-out: Conc
[5] = oral, PKSolver sheet, dose 20 mg/kg, drug alone (water), read-out: Conc
[6] = po, rats, 20 mg/kg oral, +Berry FW, average, read-out: Conc*10 (ng/mL plasma)
[7] = po, rats, 20 mg/kg oral, +Lime FW, average, read-out: Conc*10 (ng/mL plasma)
[8] = po, rats, 20 mg/kg oral, +Peach FW, average, read-out: Conc*10 (ng/mL plasma)
[9] = po, rats, 20 mg/kg oral, +Pineapple FW, average, read-out: Conc*10 (ng/mL plasma)
[10] = po, rats, 20 mg/kg oral, drug alone (water), average, read-out: Conc*10 (ng/mL plasma)
[11] = po, rats, 20 mg/kg oral, four weeks berry FW, n = 5, mean (SD)
[12] = po, rats, 20 mg/kg oral, four weeks peach FW, n = 5, mean (SD)
[13] = po, rats, 20 mg/kg oral, four weeks pineapple FW, n = 5, mean (SD)
[14] = po, rats, 20 mg/kg oral, water (control), n = 5, mean (SD)
[15] = po, raw data sheet, from average profile, +Berry FW
[16] = po, raw data sheet, from average profile, +Lime FW
[17] = po, raw data sheet, from average profile, +Peach FW
[18] = po, raw data sheet, from average profile, +Pineapple FW
[19] = po, raw data sheet, from average profile, drug alone (water)
[20] = rats, berry FW relative to control (water)
[21] = rats, lime FW relative to control (water)
[22] = rats, peach FW relative to control (water)
[23] = rats, pineapple FW relative to control (water)
[24] = raw data sheet, +Berry FW vs drug alone
[25] = raw data sheet, +Lime FW vs drug alone
[26] = raw data sheet, +Peach FW vs drug alone
[27] = raw data sheet, +Pineapple FW vs drug alone

For `C#Cc1cccc(Nc2ncnc3cc(OCCOC)c(OCCOC)cc23)c1` [ERL, Erlotinib], the concentration at 0 h [1] was 6.83 ng/mL, the concentration at 0.5 h [1] was 46.3 ng/mL and the concentration at 1 h [1] was 76.7 ng/mL. For the same compound, the concentration at 2 h [1] was 92.4 ng/mL, the concentration at 3 h [1] was 110 ng/mL and the concentration at 5 h [1] was 45.6 ng/mL. The concentration at 24 h [1] was 11.9 ng/mL, the concentration at 48 h [1] was 8.18 ng/mL and the concentration at 0 h [2] was 19.8 ng/mL. For the same compound, the concentration at 0.5 h [2] was 164 ng/mL, the concentration at 1 h [2] was 103 ng/mL and the concentration at 2 h [2] was 73.3 ng/mL. The concentration at 3 h [2] was 57.6 ng/mL, the concentration at 5 h [2] was 42.2 ng/mL and the concentration at 24 h [2] was 32.1 ng/mL. It also gave a concentration at 48 h [2] of 25.1 ng/mL, a concentration at 0 h [3] of 5.49 ng/mL and a concentration at 0.5 h [3] of 67.8 ng/mL. It also gave a concentration at 1 h [3] of 81.7 ng/mL, a concentration at 2 h [3] of 111 ng/mL and a concentration at 3 h [3] of 43.2 ng/mL. It also gave a concentration at 5 h [3] of 18.2 ng/mL, a concentration at 24 h [3] of 11.4 ng/mL and a concentration at 48 h [3] of 9.85 ng/mL. The concentration at 0 h [4] was 10.6 ng/mL, the concentration at 0.5 h [4] was 22.3 ng/mL and the concentration at 1 h [4] was 36.6 ng/mL. It also gave a concentration at 2 h [4] of 120 ng/mL, a concentration at 3 h [4] of 45.3 ng/mL and a concentration at 5 h [4] of 20.9 ng/mL. It also gave a concentration at 24 h [4] of 15.8 ng/mL, a concentration at 48 h [4] of 14 ng/mL and a concentration at 0 h [5] of 9.48 ng/mL. It also gave a concentration at 0.5 h [5] of 44.5 ng/mL, a concentration at 1 h [5] of 105 ng/mL and a concentration at 2 h [5] of 48.2 ng/mL. It also gave a concentration at 3 h [5] of 29.7 ng/mL, a concentration at 5 h [5] of 23.2 ng/mL and a concentration at 24 h [5] of 12.3 ng/mL. The concentration at 48 h [5] was 9.77 ng/mL, the concentration at 0 h [6] was 6.83 ng/mL and the concentration at 0.5 h [6] was 46.3 ng/mL. It also gave a concentration at 1 h [6] of 76.7 ng/mL, a concentration at 2 h [6] of 92.4 ng/mL and a concentration at 3 h [6] of 110 ng/mL. It also gave a concentration at 5 h [6] of 45.6 ng/mL, a concentration at 24 h [6] of 11.9 ng/mL and a concentration at 48 h [6] of 8.18 ng/mL. For the same compound, the concentration at 0 h [7] was 19.8 ng/mL, the concentration at 0.5 h [7] was 164 ng/mL and the concentration at 1 h [7] was 103 ng/mL. For the same compound, the concentration at 2 h [7] was 73.3 ng/mL, the concentration at 3 h [7] was 57.6 ng/mL and the concentration at 5 h [7] was 42.2 ng/mL. It also gave a concentration at 24 h [7] of 32.1 ng/mL, a concentration at 48 h [7] of 25.1 ng/mL and a concentration at 0 h [8] of 5.49 ng/mL. It also gave a concentration at 0.5 h [8] of 67.8 ng/mL, a concentration at 1 h [8] of 81.7 ng/mL and a concentration at 2 h [8] of 111 ng/mL. It also gave a concentration at 3 h [8] of 43.2 ng/mL, a concentration at 5 h [8] of 18.2 ng/mL and a concentration at 24 h [8] of 11.4 ng/mL. The concentration at 48 h [8] was 9.85 ng/mL, the concentration at 0 h [9] was 10.6 ng/mL and the concentration at 0.5 h [9] was 22.3 ng/mL. It also gave a concentration at 1 h [9] of 36.6 ng/mL, a concentration at 2 h [9] of 120 ng/mL and a concentration at 3 h [9] of 45.3 ng/mL. The concentration at 5 h [9] was 20.9 ng/mL, the concentration at 24 h [9] was 15.8 ng/mL and the concentration at 48 h [9] was 14 ng/mL. It also gave a concentration at 0 h [10] of 9.48 ng/mL, a concentration at 0.5 h [10] of 44.5 ng/mL and a concentration at 1 h [10] of 105 ng/mL. For the same compound, the concentration at 2 h [10] was 48.2 ng/mL, the concentration at 3 h [10] was 29.7 ng/mL and the concentration at 5 h [10] was 23.2 ng/mL. It also gave a concentration at 24 h [10] of 12.3 ng/mL, a concentration at 48 h [10] of 9.77 ng/mL and an AUC(0-inf) [11] of 1380 ng·h/mL. For the same compound, the CL/F [11] was 241 mL/min/kg, the Cmax [11] was 111 ng/mL and the Tmax (po, rats, 20 mg/kg oral, four weeks lime FW, n = 5, mean (SD)) was 0.51 h. For the same compound, the AUC(0-inf) [12] was 1530 ng·h/mL, the CL/F [12] was 219 mL/min/kg and the AUC(0-t) [12] was 827 ng·h/mL. For the same compound, the Cmax [13] was 120 ng/mL, the AUC(0-t) [13] was 942 ng·h/mL and the AUC(0-inf) [14] was 1320 ng·h/mL. The CL/F [14] was 253 mL/min/kg, the Cmax [14] was 106 ng/mL and the AUC(0-t) [14] was 827 ng·h/mL. For the same compound, the Tmax [14] was 1.02 h, the half-life [14] was 35.1 h and the AUC [15] was 1330 ng·h/mL. For the same compound, the Cmax [15] was 110 ng/mL, the Tmax [15] was 3 h and the half-life [15] was 13.3 h. The AUC [16] was 3340 ng·h/mL, the Cmax [16] was 164 ng/mL and the Tmax [16] was 0.5 h. For the same compound, the half-life [16] was 43.6 h, the AUC [17] was 1210 ng·h/mL and the Cmax [17] was 111 ng/mL. It also gave a Tmax [17] of 2 h, a half-life [17] of 27 h and an AUC [18] of 1670 ng·h/mL. The Cmax [18] was 120 ng/mL, the Tmax [18] was 2 h and the half-life [18] was 35.6 h. The AUC [19] was 1240 ng·h/mL, the Cmax [19] was 105 ng/mL and the Tmax [19] was 1 h. For the same compound, the half-life [19] was 29.4 h, the “decrease in t1/2” value [20] was ~49% and the “effect on exposure (AUC0–48)” value [20] was “significantly affected”. The “increase in AUC0–48” value [20] was 42.35%, the increase in tmax [20] was “three times increase” and the “decrease in apparent oral clearance (CL/F)” value [21] was 65%. For the same compound, the decrease in tmax [21] was “not statistically significant”, the “increase in AUC0–∞” value [21] was 200% and the “increase in Cmax” value [21] was 95%. For the same compound, the “increase in t1/2” value [21] was ~65%, the “effect on Cmax, AUC0–48, AUC0–∞, and CL/F” value [22] was “no significant effect” and the “effect on PK parameters (overall)” value [22] was “minimum effect; also recorded: least effect; also recorded: nearly negligible effect”. The “increase in t1/2” value [22] was “about 41%”, the increase in tmax [22] was “two times increase” and the “increase in AUC0–∞” value [23] was 86%. For the same compound, the “increase in t1/2” value [23] was ~113.8%, the increase in tmax [23] was “two times increase” and the “% change FOR AREA” value [24] was 7% FOR AREA. For the same compound, the “% change FOR C MAX” value [24] was 5% FOR C MAX, the “% change FOR AREA” value [25] was 170% FOR AREA and the “% change FOR C MAX” value [25] was 56% FOR C MAX. For the same compound, the “% change FOR AREA” value [26] was -2% FOR AREA, the “% change FOR C MAX” value [26] was 6% FOR C MAX and the “% change FOR AREA” value [27] was 35% FOR AREA. The “% change FOR C MAX” value [27] was 13% FOR C MAX.
